The values below come from PMC9017349, “Spiropyrimidinetriones: a Class of DNA Gyrase Inhibitors with Activity against Mycobacterium tuberculosis and without Cross-Resistance to Fluoroquinolones” (Antimicrobial Agents and Chemotherapy, 2022).

Assay [1] concerns M. tuberculosis DNA gyrase GyrA, A90V. It counts as cell-based, Mycobacterium tuberculosis.
The test system of assay [2] is M. tuberculosis DNA gyrase GyrA, G88C. It counts as cell-based, Mycobacterium tuberculosis.
For assay [3], the system named is M. tuberculosis ATCC 3583 (INH resistance). Description: microbe, parasite or virus in culture. It counts as cell-based. Particulars: Mycobacterium tuberculosis, ATCC3583, read-out: MIC90, ATCC 3583 (INH resistance).
For assay [4], the system named is M. tuberculosis ATCC 35838 (Rif resistance). In words: microbe, parasite or virus in culture. The class given is cell-based. To be noted: Mycobacterium tuberculosis, ATCC35838.
Assay [5] concerns M. tuberculosis ATCC 35826 (CS resistance). Description: microbe, parasite or virus in culture. It counts as cell-based. To be noted: Mycobacterium tuberculosis, ATCC35826.
Assay [6] relates to M. tuberculosis MmpL3, G253E. It counts as cell-based, Mycobacterium tuberculosis.
For assay [7], the system named is M. tuberculosis MmpL3, G758A/G253E. It counts as cell-based, Mycobacterium tuberculosis.
Assay [8] relates to M. tuberculosis QcrB D317T. It counts as cell-based, Mycobacterium tuberculosis.

≈ marks a conversion by molar mass, not a printed value.

In the case of `Cc1nnc(-c2noc3c(F)c4c(cc23)CC2(C(=O)NC(=O)NC2=O)[C@H]2[C@H](C)O[C@H](C)CN42)o1` [Compound 22], the “MIC90, DNA gyrase GyrA, A90V” value in assay [1] came to 0.98 µM (≈ 0.461 µg/mL). In assay [2], the “MIC90, DNA gyrase GyrA, G88C” value was 0.98 µM (≈ 0.461 µg/mL).
On to `NNC(=O)c1ccncc1` [Isoniazid, isoniazid], for which the values for the MIC90 in assay [3], in assay [4] and in assay [5] were above 62.5 µM, 7.8 µM (≈ 1.07 µg/mL) and 3.4 µM (≈ 0.466 µg/mL), respectively.
`C[C@H]1COc2c(N3CCN(C)CC3)c(F)cc3c(=O)c(C(=O)O)cn1c23` [Levofloxacin]: the “MIC90, DNA gyrase GyrA, A90V” value in assay [1] stood at 16 µM (≈ 5.78 µg/mL). Further, the “MIC90, DNA gyrase GyrA, G88C” value in assay [2] was 2.0 µM (≈ 0.723 µg/mL).
On the same counts, the results for `COc1c(N2C[C@@H]3CCCN[C@@H]3C2)c(F)cc2c(=O)c(C(=O)O)cn(C3CC3)c12` [Moxifloxacin, moxifloxacin] are 7.8 µM (≈ 3.13 µg/mL) and 0.49 µM (≈ 0.197 µg/mL).
`CO[C@H]1/C=C/O[C@@]2(C)Oc3c(C)c(O)c4c(O)c(c(/C=N/N5CCN(C)CC5)c(O)c4c3C2=O)NC(=O)/C(C)=C\C=C\[C@H](C)[C@H](O)[C@@H](C)[C@@H](O)[C@@H](C)[C@H](OC(C)=O)[C@@H]1C` [Rif, rifampicin]: in assay [6], the “MIC90, MmpL3, G253E” value is 0.001 µM (≈ 0.000823 µg/mL). In addition, the “MIC90, MmpL3, G758A/G253E” value in assay [7] came to 0.001 µM (≈ 0.000823 µg/mL). Further, in assay [8], the “MIC90, QcrB D317T” value was determined as 0.0046 µM (≈ 0.00379 µg/mL). Besides, the MIC90 in assay [3] is 0.006 µM (≈ 0.00494 µg/mL); in assay [4], above 0.1 µM; in assay [5], 0.001 µM (≈ 0.000823 µg/mL). The “MIC90, DNA gyrase GyrA, A90V” value in assay [1] turned out to be 0.0023 µM (≈ 0.00189 µg/mL). For the same molecule, in assay [2], the “MIC90, DNA gyrase GyrA, G88C” value came out at 0.0023 µM (≈ 0.00189 µg/mL).
On to `CC(C)=CCC/C(C)=C/CNCCNC1C2CC3CC(C2)CC1C3` (stereo not shown) [SQ109], for which, in assay [6], the “MIC90, MmpL3, G253E” value is 2.0 µM (≈ 0.661 µg/mL). Further, in assay [7], the “MIC90, MmpL3, G758A/G253E” value was 2.0 µM (≈ 0.661 µg/mL).
